Two molecules from US4014909A, “Esters of 21-thiol steroids” (priority 1974, dated 1977) can be followed below.

Like-named read-outs stand apart in the source and are kept apart here.

Data set [1] can be described thus: Body weight after long-term sub-cutaneous treatment. It counts as in vivo, rat (Sprague-Dawley). The note with it: 4 weeks. The protocol:
(§1) The action on the endocrine glands and the genital tractus, and a possible ulcerogenic effect were investigated, together with the effects on the glucidic and proteic metabolisms, on the hydro-mineral equilibrium after long-term administration.
(§2) There were utilized groups of 10 male rats and ten female rats of Sprague-Dawley S.P.F. strain which have been given the products under study by sub-cateneous methods daily for four weeks.
(§3) The products were administered in suspension in 5 % carboxy-methyl-cellulose under a volume of 0.5 ml. per 100 grams of body weight, in three different doses, the animals of the reference lot receiving the same volume of the vehicle alone.
(§4) In order to confirm certain previous results of the pharmacological short-term study, there has furthermore been determined, for each lot of animals:
The evolution of weight and the consumption of food during the treatment;
During the course of the long-term study, the JO 1016 was administered daily to the male and female rats in doses of 100 mg/kg, 250 mg/kg, 500 mg/kg by the sub-cutaneous route. […]

In data set [2] the test system is liver, kidneys, spleen, thymus, stomach. The format is in vivo, rat (Sprague-Dawley). The settings on record: 4 weeks.
Description: as §1
The principle of the tests employed is as follows.
The ulcer-producing action of certain corticoids, after repeated administration is well known, but the mechanism of this action still remains doubtful.
These studies have been carried out for some of the products according to the invention after sub-chronic administration.
as §2, §3
At the end of this study there were extracted:
The samples numbered (1), (2) and (3) were immediately weighed. All the samples were then fixed for histological examination in the Bouin-Holland fixator.
(§5) During the course of the long-term study, the JO 1016 was administered daily to the male and female rats in doses of 100 mg/kg, 250 mg/kg, 500 mg/kg by the sub-cutaneous route.

Data set [3] can be described thus: Glycemia after 4 weeks treatment. The format is in vivo, rat (Sprague-Dawley). The protocol:
as §1, §2, §3, §4
(§6) at the end of the treatment:
as §5
The following Tables XIV and XV indicate the results of the proportions of glycemia with the reference animals and animals treated for 4 weeks following the procedure (h)

Data set [4] is described as follows: Hydro-mineral equilibrium: sodium excretion after 4 weeks treatment. The format is in vivo, rat (Sprague-Dawley). The settings on record: male rat, 500 mg/kg s.c. How it is done: as §1, §2, §3, §4, §6
the sodium excretion in 5 hours
as §5

The nature of data set [5]: Action on the protein metabolism: weight increase of immature rats, 96 hours. The format is in vivo, rat (Wistar. The text has this:
The action on the protein metabolism was examined by means of a test, the principle of which is as follows:
The administration of gluco-corticoids results in a disturbance of the protein metabolism, which is shown by an exaggerated protein catabolism resulting in shrinking of the tissues objectified by an inhibition of growth in weight in the young animal and a loss of body weight in the adult animal.
For this study, immature rats of Wistar strain were utilized, the initial weight of which was between 45 and 55 grams, which were distributed at random groups of 10.
The products under study were administered daily for 4 days. The animals were weighed daily during the 4 days of treatment and 24 hours after the last dose.
The products tested were administered either orally or by sub-cutaneous injection, in suspension in 5 % gum arabic for the oral route or in carboxy-methyl-cellulose at 5 % for the sub-cutaneous method, the animals of the reference group receiving the same volume of vehicle by the same method as the corresponding animals treated.
The average variation of the body weight during the 96 hours treatment was calculated for each group of animals.
The increase in weight of immature rats (45 to 55 grams) treated for 96 hours following the procedure (g) by JO 1016, by the oral or the sub-cutaneous routes (average weight at the end of the study, less the average weight at the beginning) are indicated in the following Table XVIII.

The subject of data set [6] is liver, kidneys, spleen, thymus, stomach. It counts as in vivo, rat (Sprague-Dawley). The settings on record: strong dose (436 mg/kg s.c. daily), male rat; study broken off on the 14th day.

On to `CC(C)(C)C(=O)SCC(=O)[C@@]1(O)CC[C@H]2[C@@H]3CCC4=CC(=O)CC[C@]4(C)[C@H]3[C@@H](O)C[C@@]21C` [JO 1016, Dihydroxy-11β, 17α thio-21 dioxo-3,20 pregnene-4-21 pivalate], for which the “Body weight, average ± standard error” value is 219 ± 3.06 g in data set [1] (female rats, 100 mg/kg s.c.); 216 ± 3.18 g in data set [1] (female rats, 250 mg/kg s.c.); 198 ± 4.85 g in data set [1] (female rats, 500 mg/kg s.c.); 299 ± 45.2 g in data set [1] (male rats, 100 mg/kg s.c.); 289 ± 7.7 g in data set [1] (male rats, 250 mg/kg s.c.); 274 ± 2,5 g in data set [1] (male rats, 500 mg/kg s.c.). Also, the “Body weight, percentages of variation and probabilities” value in data set [1] (female rats, 100 mg/kg s.c.) was “N.S”; in data set [1] (female rats, 250 mg/kg s.c.), “N.S”; in data set [1] (male rats, 100 mg/kg s.c.), “N.S”; in data set [1] (male rats, 250 mg/kg s.c.) it was “N.S”. The “Kidneys: presence of abscess (cases)” value in data set [2] (250 mg/kg s.c. daily) and in data set [2] (500 mg/kg s.c. daily) was 0/10 each time. Also, the “Liver: presence of abscess (cases)” value in data set [2] (250 mg/kg s.c. daily) and in data set [2] (500 mg/kg s.c. daily) was 0/10 in each case. For the same molecule, the “Spleen: atrophied (cases)” value in data set [2] (250 mg/kg s.c. daily) and in data set [2] (500 mg/kg s.c. daily) was 0/10 throughout. Also, the “Stomach: ulcerated (cases)” value in data set [2] (250 mg/kg s.c. daily) and in data set [2] (500 mg/kg s.c. daily) was 0/10 in each case. For the same molecule, the “Stomach: ulcerated and infected (cases)” value in data set [2] (250 mg/kg s.c. daily) and in data set [2] (500 mg/kg s.c. daily) was 0/10 in each case. The “Thymus: atrophied (cases)” value in data set [2] (250 mg/kg s.c. daily) and in data set [2] (500 mg/kg s.c. daily) was 0/10 each time. The “Glycemia, average ± standard error” value in data set [3] (female, 500 mg/kg s.c.) is 1,10 ± 0,04 g/liter; in data set [3] (male, 100 mg/kg s.c.), 1.2 ± 0.04 g/L; in data set [3] (male, 250 mg/kg s.c.), 1.2 ± 0.05 g/L. Further, in data set [3] (male, 500 mg/kg s.c.), the “Glycemia, percentage of variation and probabilities” value is recorded as “N.S”. Besides, the “Sodium excreted, average ± standard error” value in data set [4] is 1,41 ± 0,116 Meq. For the same molecule, the “Increase in weight of immature rats” value was determined as 17 g in data set [5] (1 mg/rat/day, sub-cutaneous route); 14 g in data set [5] (3 mg/rat/day, oral route); 8 g in data set [5] (10 mg/rat/day (last line of Table XVIII (so in the source)), oral route); 11 g in data set [5] (10 mg/rat/day, oral route); 16 g in data set [5] (10 mg/rat/day, sub-cutaneous route); 13 g in data set [5] (30 mg/rat/day, oral route). In addition, the “Increase in weight of immature rats” value in data set [5] (30 mg/rat/day, sub-cutaneous route) came to 16 g.
With `CC(=O)OCC(=O)[C@@]1(O)CC[C@H]2[C@@H]3CCC4=CC(=O)CC[C@]4(C)[C@H]3[C@@H](O)C[C@@]21C` [Hydrocortisone (acetate), Hydrocortisone acetate, reference compound], the Mortality entry in data set [6] is recorded as “high mortality observed with the strong dose”.
